# Assay results taken from patent US12377069B2, “Compounds, compositions, methods of using, and methods for preparing compounds” (UNIVERSITY OF LOUISVILLE RESEARCH FOUNDATION, INC., priority 2018, dated 2025).
# What was measured:
# [1] = system: colon cancer cell line (SW480); assay: Proliferation assay with 5FU; conditions: for effect on cell proliferation, compound alone: without 5FU
# Cyp1A1 = Cyp1A1 expression and enzyme activity in vitro (P450-Glo, EROD); format: cell-based, human; conditions: for Cyp1A1 enzyme activity in colon epithelial cells: HT29, 24 h, P450-Glo and EROD
# Description: Measurment of Cyp1A1 enzyme activities in vitro. EROD assay: HT-29 cells (15,000 cells/well) treated with vehicle, UroA and UAS03 (24 hrs), were rinsed with HBSS buffer, and then fresh HBSS buffer was added along with 5 μM of 7-ethoxyresorufin. Cells were further incubated at 37° C. for 1 h. After the incubation time, fluorescence (Exc. 530 nm, Em. 580 nm) was measured and product (resorufin) formed was calculated from calibration standard and normalized with protein concentration.
# P450-Glo Cyp1A1 luminiscence assay: HT29 cells (25,000 cells/well) were plated in 48 well plate. Cell were then treated with UroA (0.1, 1, 10, 25 and 50 μM) or UAS03 (0.1, 1, 10, 25 and 50 μM) or FICZ (0.1, 1, 10, 25 and 50 nM) for 24 hrs. After treatment, cells were washed to remove any residual drugs, and fresh medium containing Cyp1A1 substrate (as per protocol provided with kit Cat. #V8751; Promega) for 3 hr. After incubation, 25 μl of culture medium was removed from each well and transferred to a 96-well white opaque plate and 25 μl of luciferin detection reagent was added to initiate the luminescence reaction and plate was incubated at room temperature for 20 min. After incubation, luminescence was recorded in luminometer. The data reported as fold change over vehicle treatment.
# C57BL/6 mice [2] = assay: TNBS-induced colitis; format: in vivo, mouse; conditions: for H&E analysis of colon sections / TNBS-induced body weight loss / TNBS-induced colon shortening / TNBS-induced downregulation of Cldn4 in colons / colon weight to length ratio / disease activity index (DAI) score / neutrophil infiltration (myeloperoxidase (MPO) activity) / serum inflammatory markers IL-6, TNF-α, CXCL1 and IL-10: oral 20 mg/kg at 12 h intervals; for loss of body weight, single treatment / TNBS-induced colitis, single treatment: single oral treatment at 4 or 20 mg/kg; for TNBS-induced colitis, single treatment: 12 h post TNBS
# Description: 2,4,6-Trinitrobenzenesulfonic acid (TNBS)-induced colitis: Male C57BL/6 or Nrf2^−/− mice (6-8 week old age mice) were anesthetized with ketamine/xylazine (100 mg/12.5 mg/kg IP) mixture and administered with single dose of TNBS (2.5 mg/mice; Sigma Aldrich, USA) in 50% ethanol. After administration of TNBS, mice were held upside down for 30-60 sec to ensure proper distribution of TNBS in the colon. Control group received 50% ethanol without TNBS. Mice with TNBS were randomly divided into three groups, viz. vehicle (0.25% sodium carboxymethylcellulose (CMC)), UroA and UAS03. UroA or UAS03 was resuspended in 0.25% sodium-CMC at desired concentrations. The mice were given orally Veh or UroA or UAS03 in 100 μl at desired concentrations (4 or 20 mg/kg/body weight). The treatment started after 12 hours of TNBS administration and every 12 hours thereafter up to 72 hours. The experiment was terminated post 60 h TNBS, where AhR^−/− mice were involved. In some experiments, we treated only once at post 12 h TNBS administration. TNBS administered and control mice were euthanized for tissue and plasma collection after 80 hours of TNBS/ethanol treatment. Mice were examined for colitis phenotype.
# Assessment of colitis severity and tissue collection: Mice were evaluated daily for change in body weight, stool consistency and rectal bleeding and score was given and combined to obtained disease activity index (MURTHY et al., (1993) “Treatment of dextran sulfate sodium-induced murine colitis by intracolonic cyclosporin” Dig Dis Sci, Vol. 38, pp. 1722-1734). After euthanasia, the colon was removed and flushed with PBS containing (1 mM PMSF and 0.2 mM sodium orthovanadate). Colon length and colon weight were measured and small parts of colon were excised for myeloperoxidase (MPO) activity and RNA isolation. Tissues for MPO and RNA extraction were snap frozen in liquid nitrogen and stored in −80° C. until further analysis. Tissue for histological examination was stored in 10% phosphate buffered saline formalin. Blood was collected and serum was separated by centrifugation at 3500×g for 15 min. Serum cytokines (IL-6, TNF-α; Biolegend) and chemokines (CXCL1; R&D Systems) levels were measured by ELISA according to manufacturer's instructions.
# In vivo intestinal permeability assay: The gut barrier function was evaluated by in vivo intestinal permeability using FITC-Dextran (MW 4000; FD4, Sigma-Aldrich, USA) (FURUTA et al., (2001) “Hypoxia-inducible factor 1-dependent induction of intestinal trefoil factor protects barrier function during hypoxia” J Exp Med, Vol. 193, pp. 1027-1034). Briefly, mice were orally administered with FITC-dextran (60 mg/100 gm body weight). Mice were fasted for 4 h prior to euthanization. The FITC-dextran concentration in serum was determined using the standard curve of FITC-dextran in serum (excitation, 485 nm; emission, 525 nm; BMG LABTECH).
# Myeloperoxidase (MPO) activity: The MPO activity in the colons was determined using the following procedure (KIM et al. (2012) “Investigating intestinal inflammation in DSS-induced model of IBD” J Vis Exp, Vol. 60, Article e3678 (6 pages)). Briefly, colon tissue was homogenized in 0.5% (w/v) hexadecyltrimethylammonium bromide (H6269; Sigma-aldrich, USA) in 50 mM PBS, pH 6.0. This homogenate underwent 3 freeze-thaw cycles and 10-15 sec sonication to obtain homogenous suspension. The supernatant from this suspension was collected after centrifiguaton at 13000×g for 20 min at 4° C. The supernatant (10 μl) was then added to 50 mM potassium phosphate buffer (pH 6.0) containing 0.167 mg/ml o-dianisidine (Sigma-Aldrich, USA) and 0.0005% H2O2(Sigma-Aldrich USA) and absorbance was taken at 450 nm (BMG, LABTECH) at 2 min interval. […]
# C57BL/6 mice [3] = assay: DSS-induced chronic colitis; format: in vivo, mouse; conditions: 4 cycles of 2% DSS; for colon weight/length ratio / expression of Cldn4 in colons / inflammation (serum IL-6, IL-10, TNF-α, colonic tissue MPO levels) / shortening of colons: 20 mg/kg/day; for DSS-induced chronic colitis: 20 mg/kg/day on 4th and 6th day of each cycle
# AhR = AhR nuclear translocation; format: cell-based, human; conditions: HT29, 50 μM
# Description: Confocal Imaging: HT29 or CaCo2 or BMDM cells (50,000 cells/well) were plated on to 8-well chambered slides (154534PK; ThermoFisher Scientific) allowed them to grow overnight. The cells were induced with vehicle (0.01% DMSO) or UroA (50 μM) or UAS03 (50 μM) for desired time points and fixed with cold methonol. The AhR or Nrf2 or Cldn4 stained with respective antibodies (1:200 dilution) followed by fluorecently labelled (Alexa flour 594 for AhR and Alexa flour 488 for Nrf2 and Cldn4) secondary ab (1:500 dilution; ThermoFisher Scientific). The nucleus was stained with DAPI (Sigma Aldrich). The confocal images were captured using Nikon AIR confocal microscope using 60× magnification lense with appropriate laser channels.
Structure (SMILES),"effect on cell proliferation, compound alone [1]",Cyp1A1 enzyme activity in colon epithelial cells (Cyp1A1),H&E analysis of colon sections (C57BL/6 mice [2]),TNBS-induced body weight loss (C57BL/6 mice [2]),TNBS-induced colon shortening (C57BL/6 mice [2]),TNBS-induced downregulation of Cldn4 in colons (C57BL/6 mice [2]),colon weight to length ratio (C57BL/6 mice [2]),disease activity index (DAI) score (C57BL/6 mice [2]),neutrophil infiltration (myeloperoxidase (MPO) activity) (C57BL/6 mice [2]),"serum inflammatory markers IL-6, TNF-α, CXCL1 and IL-10 (C57BL/6 mice [2])","loss of body weight, single treatment (C57BL/6 mice [2])","TNBS-induced colitis, single treatment (C57BL/6 mice [2])",colon weight/length ratio (C57BL/6 mice [3]),expression of Cldn4 in colons (C57BL/6 mice [3]),"inflammation (serum IL-6, IL-10, TNF-α, colonic tissue MPO levels) (C57BL/6 mice [3])",shortening of colons (C57BL/6 mice [3]),DSS-induced chronic colitis (C57BL/6 mice [3]),nuclear translocation of AhR (AhR),other results
"O=c1oc2cc(O)ccc2c2ccc(O)cc12 [UroA, 3,8-dihydroxy-6H-dibenzo[b,d]pyran-6-one]",minimal effect,induced Cyp1A1 activity,less tissue damage and inflammation scores,protected,protected from TNBS-induced colon shortening,protected from TNBS-induced downregulation of Cldn4,reduced weight to length ratio,reduced,reduced neutrophil infiltration,reduced,did not reach significance,mitigated TNBS-induced colitis,increased colon weight/length ratio,enhanced the expression of Cldn4,reduced inflammation,reduced shortening of colons,protected from DSS-induced colitis,induced the nuclear translocation,"Cyp1A1 expression (RNA-Seq and real time PCR) (Cyp1A1; HT29, 50 μM, 24 h): upregulated"
"Oc1ccc2c(c1)COc1cc(O)ccc1-2 [UAS03, 6H-benzo[c]chromene-3,8-diol]",minimal effect,induced Cyp1A1 activity,less tissue damage and inflammation scores,protected,protected from TNBS-induced colon shortening,protected from TNBS-induced downregulation of Cldn4,reduced weight to length ratio,reduced,reduced neutrophil infiltration,reduced,did not reach significance,mitigated TNBS-induced colitis,increased colon weight/length ratio,enhanced the expression of Cldn4,reduced inflammation,reduced shortening of colons,protected from DSS-induced colitis,induced the nuclear translocation,fold less 5FU drug concentration to reach the similar effect ([1]; combination with 5FU): more than 32 fold; increase in the inhibition of cell proliferation ([1]; with 3.12 μM of 5FU): approximately 6 fold; cell viability in combination with 5FU ([1]; with 5FU): 40%
